# Measured values from patent US9771430B2, “Method of treating a metabolic disorder induced by obesity in a subject in need thereof by administering MK2/3 inhibitors” (THE TRUSTEES OF COLUMBIA UNIVERSITY IN THE CITY OF NEW YORK, priority 2011, dated 2017).
# Tests used:
# [1] = tested on: IP3-mediated Ca2+ release; settings: cited from earlier work
# [2] = tested on: CRE-luciferase (luc) reporter; test: CRE-luciferase reporter activity in primary hepatocytes; assay type: cell-based, mouse; settings: response to glucagon
# Protocol: (§1) HEK293T (ATCC) cells were cultured in DMEM containing 10% FBS (HyClone), […] penicillin-streptomycin. Mouse primary hepatocytes were isolated and cultured as previously described (18). Cellular fractionation studies were conducted as previously reported (18). For reporter studies, Ad-CRE-luc infected hepatocytes (1 pfu per cell) were exposed to glucagon (Gcg, 100 nM) for 2˜4 h. For cyclosporine A (CsA, 10 μM) or okadaic acid (OA, 100 nM) or cell permeable calcineurin autoinhibitory peptide (10 μM) or CN585 (100 μM) or Calyculin A (10 nM) or Xestospongin C (Xc, 2 μM) or H89 (30 μM) or BAPTA (50 μM) inhibition, hepatocytes were pre-treated with the inhibitors for one hour. Luciferase activities were normalized to β-galactosidase activity from adenoviral-encoded RSV β-gal. Calcineurin activity (test kit from Enzo Life Sciences) and cellular cAMP levels (test kit from Cayman Chemical Company) were measured according to manufacturer's instructions.
# G6pc and Pck1 mRNA = G6pc and Pck1 mRNA (RT-qPCR) in primary mouse hepatocytes; assay type: cell-based; settings: glucagon / forskolin
# Protocol: FIG. 32A-E. Related to FIG. 26—p38. FIG. 32A Mice were fed ad libitum or fasted for 12 h. Liver phospho-p38, total p38, p-MK2, total MK-2, and β-actin were assayed by immunoblot. FIG. 32B WT HCs were serum-depleted overnight and then incubated for 5 h with 100 nm glucagon in serum-free media with or without SB202190; or glucagon was added to HCs from P38a^fl/fl mice treated with adeno-LacZ (control) or adeno-Cre. RNA was assayed for G6pc and Pck1 mRNA (*P<0.05; mean±S.E.M.). FIG. 32C HCs from fasting WT and Camk2g^−/− mice were assayed for p-p38, total p38, and β-actin. FIG. 32D WT mice were injected i.p. with 12.5 mg kg^−1 body weight of p38 inhibitor (SB202190) or vehicle control. 12 h later, the mice were injected with an additional dose of SB202190 and fasted overnight. The livers were assayed for nuclear FoxO1, nucleophosmin, p-MK2, total MK-2, and β-actin. The correlation between nuclear FoxO1 and p-MK2 band intensities is shown in the graph. FIG. 32E Adeno-GFP-FoxO1-transduced HCs were serum-depleted overnight, and then incubated for 5 h in serum-free media with SB202190 or vehicle (Veh) control. FoxO1 localization was assessed by indirect immunofluorescence (Bar, 10 μm; *P<0.05; mean±S.E.M.).
# FIGS. 53A-B. MK-2 regulates hepatic FoxO1 subcellular localization and hepatic G6Pc and Pck1. FIG. 53A. Adeno-GFP-FoxO1-transduced HCs were serum-depleted overnight, and then incubated for 30 min in serum-free media with 2 uM MK-2 inhibitor or vehicle (Veh) control. FoxO1 localization was assessed by indirect immunofluorescence (Bar, […]; *P<0.005; mean±S.E.M.). FIG. 53B WT HCs were serum-depleted overnight and then incubated for 5 h with 100 nm glucagon in serum-free media with or without MK-2 inhibitor. RNA was assayed for G6pc and Pck1 mRNA (*P<0.005; mean±S.E.M.). MK-2 Inhibitor is from Calbiochem (cat#475864): 2-(2-Quinolin-3-ylpyridin-4-yl)-1,5,6,7-tetrahydro-4H-pyrrolo-[3,2-c]pyridin-4-one.
# FIG. 69. MK-2 inhibitor suppresses forskolin-induced Pck1 and G6Pc induction in primary hepatocytes. Primary hepatocytes from WT mice were serum-depleted overnight and then pre-treated with 300 nM MK-2 inhibitor (compound 28) or vehicle for 1 h. Cells were then treated with 2 μM forskolin in serum-free media with or without the inhibitor for 4 h. RNA was assayed for G6pc and Pck1 mRNA by RT-qPCR. *, P<0.0001.
# Primary mouse HCs were isolated from 8- to 12-week-old mice as described previously (Matsumoto et al., 2002). For most experiments, the HCs were serum-depleted overnight by incubation in medium containing 0.5% fetal calf serum and were then incubated for 5 h in serum-free media, with individual treatments noted in the figure legends. HCs were transduced with adenoviral constructs 12 h after plating, and experiments were conducted 24 h after transduction. Transfections with WT, 7A- and 9A-Foxo1 were carried out using jetPEI™-hepatocyte DNA transfection reagent (Polyplus-transfection, Inc.) according to manufacturer's instructions.
# Immunoblot and RT-qPCR assays were performed as previously described (Timmins et al., 2009). Total RNA was extracted from HCs using the RNeasy kit (Qiagen). cDNA was synthesized from 2 μg total RNA using oligo (dT) and Superscript II (Invitrogen). Nuclear extraction from liver was performed using the Nuclear Extraction Kit from Panomics according to the manufacturer's instructions. […] Whether their origin is alternative splicing or post-translational modification remains to be determined.
# CRTC2 = CRTC2 dephosphorylation and nuclear translocation in primary hepatocytes; assay type: cell-based, mouse; settings: inhibitor pre-treatment 1 h, glucagon 100 nM
# Protocol: as §1
# Immunoblot, immunoprecipitation, and immunostaining assays were performed as described (18). CRTC2, pCREB (Ser133), CREB, pAKT (Thr308), AKT, tubulin, HA, and FLAG antibodies were previously described (18). The antibodies anti-InsP3R1 (A302-158A) and InsP3R3 (A302-160A) were purchased from Bethyl Laboratories, anti-InsP3R2 (ab77838) from Abcam, anti-Calcineurin (610260) from BD Biosciences, anti-GRP78 (ADI-SPA-826-F) from Enzo Life Sciences, anti-phospho-PKA substrate (RRXS/T, 9624), anti-phospho-AKT substrate (RXXS/T, 9614) and CRTC2 (pS171, 2892) from Cell Signaling. CRTC2 (pS275) antibody was employed as described (19).
smiles,measurement,setting,value
C1CCC[C@H]2CCCN3CC[C@@H](CCCCCC[C@@H]4CCCN5CC[C@@H](CC1)O[C@@H]45)O[C@@H]23 [Xestospongin C],selectivity over the skeletal isoform of the ryanodine receptor type 1 (RyR-1),[1],high selectivity
same,IC50,"[1]; read-out: IC50, blocker of IP3-mediated Ca2+ release",358 nM
same,CRE-luciferase (luc) reporter activity / activation,[2],blocked
same,induction of the gluconeogenic program,G6pc and Pck1 mRNA,blocked
same,glucagon-induced dephosphorylation (and nuclear translocation) of CRTC2,CRTC2,blocked
